According to patent US20250042884A1, “3-ARYLOXYL-3-FIVE-MEMBERED HETEROARYL PROPYLAMINE COMPOUND AND USE THEREOF” (Shanghai Leado Pharmatech Co. Ltd., priority 2018, published 2025):
Where two headings read alike, the source gives them in different places.

Molecular target: TRPA1 (Mus musculus (Mouse), UniProt Q8BLA8)
Experiment: IonWorks Barracuda (IWB) automated patch clamp detection of TRPA1 inhibitory activity
Assay type: cell-based
Settings: for IC50: HEK293 cells stably expressing TRPA1
Protocol: The inhibitory activity of some compounds in the examples of the present invention (as shown in Table 1) on transient receptor potential channel protein TRPA1 was tested in this example. The compound of formula A (WO2010075353) was used as a positive control compound: […]
Ion Works Barracuda (IWB) automated patch clamp detection was used as test method: HEK293 cells stably expressing TRPA1 were placed in DMEM medium containing 15 μg/mL Blasticidin S HCl, 200 μg/mL Hygromycin B and 10% FBS in the T175 culture flask, and cultured in 37° C., 5% CO2 incubator. When the cell density reached about 80%, the culture medium was removed, rinsed with phosphate buffered saline (PBS) without calcium and magnesium. 3 mL of Trypsin was added to digest for 2 min, 7 mL of culture medium was added to terminate the digestion. The cells were collected to 15 mL centrifuge tube and centrifuged at 800 rpm for 3 min. After the supernatant was removed, the cells were added to appropriate volume of extracellular fluid for re-suspending, and the cell density was controlled at 2-3×10^6/mL for IWB experiment. Extracellular fluid formulation (in mM): 140 NaCl, 5 KCl, 1 MgCl2, 10 HEPES, 0.5 EGTA, 10 Glucose (pH 7.4); intracellular fluid formulation (in mM): 140 CsCl, 10 HEPES, 5 EGTA, 0.1 CaCl2, 1 MgCl2 (pH 7.2). 28 mg/mL of amphotericin B was freshly prepared with DMSO on the day of experiment, and then final concentration of 0.1 mg/mL was prepared with intracellular fluid.
Population patch clamp (PPC) plate was used in IWB experiment. The entire detection process was automatically carried out by the instrument. Extracellular fluid was added into 384 wells of PPC plate, and 6 µL of the intracellular fluid was added into plenum (under the PPC plate), 6 µL of cell fluid was added for sealing test, and finally the intracellular fluid in plenum was replaced with amphotericin B-containing intracellular fluid to establish a whole-cell recording mode after perforating sealed cells. The sampling frequency for recording TPRA1 current was 10 kHz, the cells were clamped at 0 mV, the voltage stimulation command (channel protocol) was a ramp voltage from −100 mV to +100 mV for 300 ms. This voltage stimulation was applied every 10 s, mTRPA1current was induced by 300 µM AITC.
Data recording and current amplitude measurement export were carried out by IWB software (version 2.5.3, Molecular Devices Corporation, Union City, CA). No statistics was recorded for holes with sealing impedance lower than 20 MQΩ. The original current data was corrected by software for leakage reduction. TRPA1 current amplitude was measured at +100 mV. […] If IC50 value of HC030031 exceeded 3 times the average IC50 value previously obtained on each plate, it would be re-tested. The dose-effect curve of compounds and IC50 were fitted and calculated by GraphPad Prism 5.02 (GraphPad Software, San Diego, CA).
Some compounds in the examples of the present invention were detected by lonWorks Barracuda (IWB) automated patch clamp detection method for IC50 inhibitory activity.

Sequence of TRPA1 (Q8BLA8 whole entry): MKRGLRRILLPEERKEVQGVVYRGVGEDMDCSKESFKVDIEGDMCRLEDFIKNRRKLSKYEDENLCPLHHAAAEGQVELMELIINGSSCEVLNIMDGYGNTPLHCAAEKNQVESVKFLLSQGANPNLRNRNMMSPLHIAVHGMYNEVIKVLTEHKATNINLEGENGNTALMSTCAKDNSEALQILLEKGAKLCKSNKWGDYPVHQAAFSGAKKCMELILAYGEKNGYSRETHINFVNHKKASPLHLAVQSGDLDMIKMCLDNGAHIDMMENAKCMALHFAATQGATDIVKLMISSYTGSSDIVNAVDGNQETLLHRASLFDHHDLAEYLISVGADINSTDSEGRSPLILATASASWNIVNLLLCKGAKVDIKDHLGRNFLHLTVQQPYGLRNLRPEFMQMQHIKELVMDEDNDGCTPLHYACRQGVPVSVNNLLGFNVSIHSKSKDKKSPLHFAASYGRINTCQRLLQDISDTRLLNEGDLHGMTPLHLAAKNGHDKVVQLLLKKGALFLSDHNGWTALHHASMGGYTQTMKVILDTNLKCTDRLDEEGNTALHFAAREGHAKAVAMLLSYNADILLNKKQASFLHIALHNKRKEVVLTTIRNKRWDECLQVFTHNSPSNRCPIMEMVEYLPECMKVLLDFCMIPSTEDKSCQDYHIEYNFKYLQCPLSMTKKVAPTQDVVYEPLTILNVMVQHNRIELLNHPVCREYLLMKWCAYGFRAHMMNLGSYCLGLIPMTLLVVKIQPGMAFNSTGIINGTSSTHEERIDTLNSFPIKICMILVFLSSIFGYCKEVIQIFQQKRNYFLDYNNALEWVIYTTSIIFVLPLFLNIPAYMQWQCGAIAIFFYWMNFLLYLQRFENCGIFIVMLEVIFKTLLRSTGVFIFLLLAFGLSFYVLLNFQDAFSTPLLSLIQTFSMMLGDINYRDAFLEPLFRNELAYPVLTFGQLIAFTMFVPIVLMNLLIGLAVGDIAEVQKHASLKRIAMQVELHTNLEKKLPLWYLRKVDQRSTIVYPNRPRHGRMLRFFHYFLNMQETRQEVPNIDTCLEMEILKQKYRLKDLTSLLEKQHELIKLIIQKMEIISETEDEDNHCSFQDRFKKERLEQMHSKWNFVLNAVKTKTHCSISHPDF

IC50 (FIG. 1, read-out: IC50 on TRPA1, automated patch clamp): 2.06 µM
IC50 (current induced by AITC, read-out: IC50 (μM), inhibitory activity on TRPA1 in the automated patch clamp detection test): 1 to 5 µM
activity ratio, IC50 of compound C2/IC50 of compound I-1 (TRPA1, automated patch clamp): about 6.3
Compound: CNCC[C@@H](Oc1cccc2ccoc12)c1cccs1 [Compound I-1, (R)-3-(benzofuran-7-yloxy)-N-methyl-3-(thiophen-2-yl)propyl-1-amine]
